Measurements taken from patent US10604512B2, “3-(1H-indol-2-yl)-1H-indazoles and therapeutic uses thereof” (Samumed, LLC, priority 2015, dated 2020).

Tests used:
[1] = system: Wnt activity (Sp5-Luc reporter, TCF/LEF binding sites) in SW480 colon carcinoma cells; experiment: Screening assay for Wnt activity: Sp5-Luc reporter gene assay in stably transduced SW480 colon carcinoma cells; type: cell-based; details: Homo sapiens, overnight incubation, 10-point curve from 10 μM
How it was run: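 SW480 cells stably transduced with a luciferase reporter driven by an Sp5 promoter of eight TCF/LEF sites were plated at 4,000 cells/well in 1% FBS medium. They were exposed overnight at 37° C to a 10-point 1:3 dilution series from 10 μM (0.1% DMSO). Luminescence was normalized to DMSO for four-parameter EC50, or percent inhibition at 10 μM.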

[2] = system: primary human mesenchymal stem cells (hMSCs); experiment: Induction of chondrogenesis in primary human mesenchymal stem cells (nodule imaging, Rhodamine B / Nile Red); type: cell-based
How it was run: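 hMSCs (passage 3–6) in incomplete chondrogenic induction medium dosed at 2700–10 nM (96-well) or 5000–2.2 nM (384-well), 0.03% DMSO, for 6 days at 37 °C. Fixed cells stained with Rhodamine B/Nile Red and nodule area imaged, normalized to DMSO wells (fold change). EC50 set against TGF-β3 (10 ng/mL); maximum activity and its dose also reported.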

Structure (SMILES) | EC50 [1] | EC50 ([2]; concentration required to induce 50% levels of chondrogenesis vs TGF-β3 positive control, read-out: Conc (nM) of 50% TGF-β3 activity) | Emax ([2]; maximum chondrogenesis activity relative to TGF-β3 (10 ng/mL) positive control, read-out: Max. Activity as % TGF-β3 activity)
Fc1cccc(-c2cccc3[nH]c(-c4n[nH]c5ccc(-c6ccncc6)cc45)cc23)c1 [Compound 18, 3-(4-(3-Fluorophenyl)-1H-indol-2-yl)-5-(pyridin-4-yl)-1H-indazole] | 4620 nM |  | 
CC(C)(C)CC(=O)Nc1cncc(-c2ccc3[nH]nc(-c4cc5c(-c6ccsc6)cccc5[nH]4)c3c2)c1 [Compound 296, 3,3-Dimethyl-N-(5-(3-(4-(thiophen-3-yl)-1H-indol-2-yl)-1H-indazol-5-yl)pyridin-3-yl)butanamide] | 455 nM |  | 
O=C(Nc1cncc(-c2ccc3[nH]nc(-c4cc5c(-c6ccsc6)cccc5[nH]4)c3c2)c1)C1CCCCC1 [Compound 303, N-(5-(3-(4-(Thiophen-3-yl)-1H-indol-2-yl)-1H-indazol-5-yl)pyridin-3-yl) cyclohexanecarboxamide] | 1150 nM |  | 
Nc1cncc(-c2ccc3[nH]nc(-c4cc5c(-c6ccoc6)cccc5[nH]4)c3c2)c1 [Compound 311, 5-(3-(4-(Furan-3-yl)-1H-indol-2-yl)-1H-indazol-5-yl)pyridin-3-amine] | 40 nM | 10 nM | 197%
O=C(Cc1ccccc1)Nc1cncc(-c2ccc3[nH]nc(-c4cc5c(-c6ccoc6)cccc5[nH]4)c3c2)c1 [Compound 318, N-(5-(3-(4-(Furan-3-yl)-1H-indol-2-yl)-1H-indazol-5-yl)pyridin-3-yl)-2-phenylacetamide] | 1120 nM |  | 
c1cc(-c2ccoc2)c2cc(-c3n[nH]c4ccc(-c5cncc(CNCC6CCCC6)c5)cc34)[nH]c2c1 [Compound 333, 1-Cyclopentyl-N-((5-(3-(4-(furan-3-yl)-1H-indol-2-yl)-1H-indazol-5-yl)pyridin-3-yl)methyl)methanamine] | 3760 nM |  | 
